Legend:
Type in all cases: cell-based
[1] = test system: 31 positive blood cultures (E. coli, K. pneumonia, A. baummanii, P. mirabilis, E. cloacae, Aeromonass spp., K. oxytoca); test: Macro dilution reference method, positive blood cultures (visual growth after 16-20 hours); conditions: 31 strains from positive blood cultures
Procedure: 31 positive blood cultures were obtained from Sheba Medical Center (Ramat-Gan, Israel) and tested for antimicrobial susceptibility with gentamicin and ampicillin antibiotics (Sigma-Aldrich, USA). A total of 62 positive blood samples-antibiotics combinations were tested. • a) Positive blood samples were received from Sheba Medical Center, 2 ml of each sample were centrifuged for 15 min at 24×g and Supernatants were diluted 1:1000 with Cation-Adjusted Mueller Hinton Broth (CAMHB). • b) Antimicrobial stock solutions were prepared according to CLSI recommendations, and were diluted in CAMHB, to a concentration which was 2 fold higher from the highest concentration recommended for each antimicrobial combination (“Class II Special Controls Guidance Document: Antimicrobial Susceptibility Test (AST) Systems”, Aug. 28, 2009, FDA). • c) For each sample/antimicrobial combination, a set of tubes was prepared for which 1 ml of CAMHB medium was added, except for the first tube. • d) To each first tube of the set, 2 ml from the antimicrobial stock solution (b) was dispensed. • e) From the first tube a serial dilutions of 2 folds were prepared by transferring 1 ml of the solution to the next tube until the lowest required concentration by CLSI. 1 ml was discarded from the last tube in each set of tubes. • f) To each tube in the set, 1 ml of bacterial sample solution (a) was added. • g) For each serial dilutions set, two controls were added. As a negative control, a tube with 2 ml of CAMHB. As a positive control, a tube with bacterial sample solution (a) without antimicrobial agent. • h) All tubes were incubated at 37° C. • i) 2-4 hours from incubation initiation, 200 μl from each tube were transferred into a fresh tube, dyed with 2 μl of Synaptogreen or FM 1-43 (Sigma-Aldrich; Molecular Probes, respectively) and measured by a flow cytometer. The rest of the sample was further incubated for 16-20 hours and then was visually evaluated for growth.
62 samples (31 positive blood cultures and 2 antibiotics combination) were analyzed in triplicates. Each sample was measured by the flow cytometer and the MIC was calculated using the spectral intensity ratio (SIR) calculation and step function estimation. The bacteria identified within the samples were; E. coli (15 samples), K. pneumonia (6 samples), A. baummanii (4 samples), P. mirabilis (2 samples), E. cloacae (2 samples), Aeromonass spp. (1 sample), and K. oxytoca (1 sample).
Tables 1 and 2 present the results of the positive blood sample experiment using the macro dilution as the reference method. […] There are no errors as defined by “Class II Special Controls Guidance Document: Antimicrobial Susceptibility Test (AST) Systems,” Aug. 28, 2009, FDA.

K. pneumonia = test: Rapid AST/MIC from positive blood culture by FM 1-43 staining, flow cytometry and spectral intensity ratio (SIR); conditions: 2-4 hours antibiotic exposure
Procedure: (§1) In general, the method includes; blood culture centrifugation, bacterial antimicrobial exposure for 2 to 4 hours, bacteria staining with a single fluorescence dye followed by a flow cytometric measurement, and mathematical analysis.
(§2) 31 positive blood cultures were obtained from Sheba Medical Center (Ramat-Gan, Israel) and tested for antimicrobial susceptibility with gentamicin and ampicillin antibiotics (Sigma-Aldrich, USA). […] As a positive control, a tube with bacterial sample solution (a) without antimicrobial agent. • h) All tubes were incubated at 37° C. • i) 2-4 hours from incubation initiation, 200 μl from each tube were transferred into a fresh tube, dyed with 2 μl of Synaptogreen or FM 1-43 (Sigma-Aldrich; Molecular Probes, respectively) and measured by a flow cytometer. The rest of the sample was further incubated for 16-20 hours and then was visually evaluated for growth.
(§3) In order to quantify the influence of a certain antimicrobial exposure we define the spectral intensity ratio (SIR) as follows: […]
(§4) The MIC is calculated by plotting the spectral intensity ratio (SIR) as a function of the antimicrobial concentration and approximating it to a step function in the form of […]

[2] = test system: 30 clinical isolates of E. coli, K. pneumoniae, E. cloacae, P. mirabilis, and C. freundii; test: Macro dilution reference method, clinical isolates (visual growth after 16-20 hours)
Procedure: A total of 90 isolates-antibiotics combinations were tested. • a) All strains were cultured onto 5% sheep blood agar (Hylabs, Israel), following overnight incubation, colonies were harvested and suspended in Phosphate Buffer Saline (PBS, Sigma-Aldrich). […] 1 ml was discarded from the last tube in each set of tubes. • g) For each serial dilutions set, two controls were added. As a negative control, a tube with 2 ml of CAMHB. […] The rest of the sample was further incubated for 16-20 hours and then was visually evaluated for growth.

E. coli [3] = test: Rapid AST from positive blood culture by FM 1-43 staining, flow cytometry and SIR; conditions: positive blood culture strain, 2-4 hours antibiotic exposure
Procedure: as §1, §2, §3, §4

E. coli [4] = test: Rapid AST/MIC from clinical isolates by FM 1-43 staining, flow cytometry and SIR; conditions: clinical isolate, 2-4 hours antibiotic treatment
Procedure: (§5) Our method includes bacterial antimicrobial treatment for 2 to 4 hours, bacteria staining with a single fluorescence dye followed by a flow cytometric measurement, and mathematical analysis. The following paragraphs describe the method in details.
(§6) A total of 90 isolates-antibiotics combinations were tested. • a) All strains were cultured onto 5% sheep blood agar (Hylabs, Israel), following overnight incubation, colonies were harvested and suspended in Phosphate Buffer Saline (PBS, Sigma-Aldrich). […] The rest of the sample was further incubated for 16-20 hours and then was visually evaluated for growth.
(§7) In order to quantify the influence of a certain antimicrobial treatment, we define the spectral intensity ratio (SIR) as follows: […]
(§8) The MIC is calculated by plotting the spectral intensity ratio (SIR) as a function of the antimicrobial concentration and approximating it to a step function in the form of
(§9) Where a, b, and c are parameters and erf is the error function. The parameters are used to approximate the measured SIR to a step function; a is a scaling parameter, b determines the step slope, and c is the MIC value. […]

C. freundii = test: Rapid AST from clinical isolates by FM 1-43 staining, flow cytometry and SIR; conditions: clinical isolate, up to 32 μg/ml
Procedure: as §5, §6, §7, §8, §9

E. coli [5] = test: Flow cytometry SIR/SDL dead/live analysis of FM1-43 stained bacteria under Gentamycin exposure; design: key to SIR: SIR = ratio of mean FL-3 (610 nm) to FL-1 (530 nm) fluorescence; conditions: for Dead % of This Plot / Live % of This Plot / SDL SIR * D/L / SIR: 120 minutes
Procedure: In this Example, E. coli bacteria samples were incubated with Gentamycin in series dilution from 0 to 32 μgr/ml for 120 minutes. Post incubation the samples were stained with the dye FM1-43 and immediately measured by flow cytometry analysis on light scatter analysis for gating the bacteria and with fluorescence filters: λ1=530/30 and λ2=616/16 nm to analyze the SIR. Moreover gating of the Dead and live bacteria were determined.
From such instant flow-cytometry analysis the SIR and SDL values are evaluated. While performing the same analysis over the whole antibiotic concentrations dilution series the SIR and SDL values were extracted to the concentration series, the data is summarized in Table 5. In Table 5, mean FL1-H and FL3-H is the average of the individual points in the bacteria gated population, i.e. of all measured bacteria. In other words, Fl-1 and FL-3 are merely the fluorescence intensity of each event (bacteria) per a certain fluorescence filter. By referring to FL-1 or FL-3 this means that the mean (average) values of all the events is calculated in the dot plot. FL-1 it is at 530 (±15) nm and FL-3 is at 610 (±10) nm. SIR, is the ratio of FL-3/FL-1. […] So, in order to obtain SIR all that is needed are the FL-3 and FL-1 mean values of the bacterial population in the dot plot. […] By using a predetermined gates, the number of dead and live bacteria can be counted, and then the ratio of dead to live can be calculated and multiplied by the SIR to obtain SDL. The gates are combination of FL-1 and FL-3 and predetermined by control live sample. Plotting SIR, SDL, and DL versus antibiotic concentration is represented in FIG. 15 as (labeled as “SIR”, “SDL”, and “DL”). In FIG. 15, SIR, SDL, and DL are all normalized to the maximum value in the series (column)/dataset and then to 100.
From the data, we can determine the MIC by approximating the MIC as a function of antimicrobial concentration to an error function (FIG. 16) of the following type;
The MIC is the value of the parameter c or a function of it. Specifically, the MIC gets the value of “c”. The value of “c” is the middle of the step in a regular step function of where the step function equals to zero when its values are normalized between −1 to 1.

E. coli [6] = test: Micro dilution susceptibility test performed in parallel; conditions: after 12 hours of incubation
[7] = 120 minutes incubation, FIG. 17A
[8] = 120 minutes incubation, FIG. 17B
[9] = Gentamycin 1 microg/ml (sub-MIC), listed as Gentamycin
[10] = Gentamycin 1 microg/ml (sub-MIC), listed as gentamycin
[11] = Gentamycin 8 microg/ml (over-MIC), listed as Gentamycin
[12] = Gentamycin 8 microg/ml (over-MIC), listed as gentamycin

## CC1(C)S[C@@H]2[C@H](NC(=O)[C@H](N)c3ccccc3)C(=O)N2[C@H]1C(=O)O [Ampicillin, ampicillin]
[1]
  Reference Method Susceptibilities I (number of strains): 0
  Reference Method Susceptibilities R (number of strains): 26
  Reference Method Susceptibilities S (number of strains): 5
K. pneumonia; Klebsiella pneumoniae, read-out: MIC (SIR approximated to a step function)
  MIC: 4 µg/mL
[2]
  Reference Method Susceptibilities I (number of strains): 5
  Reference Method Susceptibilities R (number of strains): 9
  Reference Method Susceptibilities S (number of strains): 16
E. coli [3]
  susceptibility by SIR method: resistant

## gentamicin
E. coli [4]
  MIC (SIR approximated to a step function): 2 µg/mL
C. freundii
  susceptibility by SIR method: resistant
[1]
  Reference Method Susceptibilities I (number of strains): 0
  Reference Method Susceptibilities R (number of strains): 10
  Reference Method Susceptibilities S (number of strains): 21
K. pneumonia
  MIC (SIR approximated to a step function): 1 µg/mL
E. coli [5]; [7]
  MIC from SIR error function fit (c rounded up to power of 2): 8 μgr/ml
  value of c, error function fit of measured SIR: 4.63 μgr/ml
E. coli [5]; [8]
  MIC from SDL error function fit (c rounded up to power of 2): 8 μgr/ml
  value of c, error function fit of measured SDL: 5.38 μgr/ml
E. coli [5]; Gentamycin 0.25 microg/ml
  Dead % of This Plot: 2.07%
  Live % of This Plot: 97.89%
  SDL SIR * D/L: 0.026
  SIR: 1.223
E. coli [5]; Gentamycin 0.5 microg/ml
  Dead % of This Plot: 2.34%
  Live % of This Plot: 97.65%
  SDL SIR * D/L: 0.030
  SIR: 1.238
E. coli [5]; [9]
  Dead % of This Plot: 4.64%
  Live % of This Plot: 95.29%
E. coli [5]; [10]
  Dead % of This Plot: 4.6%
  Live % of This Plot: 95.2%
E. coli [5]; Gentamycin 1 microg/ml
  SDL SIR * D/L: 0.070
  SIR: 1.437
E. coli [5]; Gentamycin 2 microg/ml
  Dead % of This Plot: 6.46%
  Live % of This Plot: 93.52%
  SDL SIR * D/L: 0.099
  SIR: 1.426
E. coli [5]; Gentamycin 4 microg/ml
  Dead % of This Plot: 9.86%
  Live % of This Plot: 90.09%
  SDL SIR * D/L: 0.188
  SIR: 1.718
E. coli [5]; [11]
  Dead % of This Plot: 18.68%
  Live % of This Plot: 81.28%
E. coli [5]; [12]
  Dead % of This Plot: 18%
  Live % of This Plot: 81%
E. coli [5]; Gentamycin 8 microg/ml
  SDL SIR * D/L: 0.492
  SIR: 2.141
E. coli [5]; Gentamycin 16 microg/ml
  Dead % of This Plot: 27.28%
  Live % of This Plot: 72.67%
  SDL SIR * D/L: 0.893
  SIR: 2.379
E. coli [5]; Gentamycin 32 microg/ml
  Dead % of This Plot: 21.03%
  Live % of This Plot: 78.95%
  SDL SIR * D/L: 0.622
  SIR: 2.336
[2]
  Reference Method Susceptibilities I (number of strains): 4
  Reference Method Susceptibilities R (number of strains): 5
  Reference Method Susceptibilities S (number of strains): 21
E. coli [6]
  MIC, micro dilution susceptibility test: 8 μgr/ml
